# Laboratory results published in paper PMC6770071, “XIAP as a Target of New Small Organic Natural Molecules Inducing Human Cancer Cell Death” (Cancers, 2019).
# Read-outs that look alike come from different tables or passages of the source.
# Tests used:
# MCF10 cells = test: MTT cell viability assay, MCF10 cells; type: cell-based; conditions: Homo sapiens, 24 h, non-tumourigenic breast MCF10 cells
# Experimental: Human U373 glioma, MCF7 breast cancer, A549 lung cancer and PC-3 prostate cancer cells were grown in Dulbecco’s Modified Eagle Medium (DMEM), supplemented with 10% foetal bovine serum, 2 mM glutamine, 100 U/mL penicillin/streptomycin, at 37 °C in a humidified atmosphere containing 5% CO2 (logarithmic growth phase, routine passages every 3 days). The human breast epithelial cell line MCF10 was cultured in DMEM/F12 Ham’s Mixture supplemented with 5% horse serum, epithelial growth factor 20 ng/mL, insulin 10 μg/mL, hydrocortisone 0.5 mg/mL, cholera toxin 100 ng/mL, and 100 U/mL penicillin/streptomycin. […]
# (§1) U373, MCF7, A549, PC-3, HUVEC, and MCF10 cell viability was determined by MTT assay using published protocols. MTT absorbance was quantified spectrophotometrically using a Glomax Multi Detection System microplate reader (Promega, Milano, Italy).
# Statistical significance of raw data between the groups in each experiment was evaluated using unpaired Student’s t-test (single comparisons) or one-way ANOVA followed by the Newman-Keuls post-test (multiple comparisons). The IC50 and Emax concentration were determined by non-linear regression curve analysis of the concentration-effect responses. […] The results were expressed as means ± standard error of mean (SEM) of the indicated n values.
# MCF7 cells [1] = test: Confocal co-localisation of cytochrome c with COX IV, MCF7 cells; type: cell-based, human; conditions: MCF7, 3 h; gibbilimbol B/eriopodol A 30 µg/mL, erioquinol 10 µg/mL
# Experimental: (§2) Using published protocols, MCF7 or U373 cells cultured in 120-mm coverslips were fixed in 4% paraformaldehyde in 0.1 M PB, pH 7.4, for 10 min. Cells were pre-incubated for 1 h min with 5% of normal goat serum (Life Technologies, Monza, Italy) in 0.1 M PB (pH 7.4) containing 0.1% Triton X-100, before overnight incubation with the rabbit monoclonal anti-cleaved caspase 7 (Cell Signaling Technology, Danvers, MA, USA). In double-label immunofluorescence experiments, the mouse monoclonal anti-cytochrome c primary antibody (Cell Signaling Technology) was used in conjunction with the rabbit monoclonal primary antibody directed to COX IV (Cell Signaling Technology). For fluorescence detection, coverslips were stained with the appropriate Alexa Fluor secondary antibodies (Life Technologies) and mounted on glass slides in a ProLong Gold Antifade Mountant (Life Technologies). DAPI and/or fluorescein phalloidin (cytoskeleton detection) staining was also used. Cells were analysed with a DMI4000 B automated inverted microscope equipped with a DCF310 digital camera (Leica Microsystems, Wetzlar, Germany). When indicated, confocal imaging was performed with a TCS SP8 System (Leica Microsystems). Image acquisitions were controlled by the Leica Application Suite X.
# U373 cells [2] = test: TMRM mitochondrial membrane potential analysis, U373 cells; type: cell-based, human; conditions: U373, increasing time; gibbilimbol B/eriopodol A 30 µg/mL, erioquinol 10 µg/mL
# Experimental: Using published protocols, mitochondria of MCF7 and U373 cells were labeled using TMRM, a voltage-sensitive cationic lipophilic dye, partitioning and accumulating in the mitochondrial matrix based upon the Nernst equation. After treatments, cells were trypsinised, counted and incubated with 100 nM TMRM for 30 min at 37 °C. Fluorescence was measured by using a Glomax Multi Detection System microplate reader (Promega), excitation wavelength: 525 nm; emission wavelength: 580–640 nm). After background subtraction, the data were normalised on cell number.
# MCF7 cells [3] = test: ROS detection with DCFH-DA, MCF7 cells; type: cell-based, human; conditions: MCF7, 6 h; gibbilimbol B/eriopodol A 30 µg/mL, erioquinol 10 µg/mL
# Experimental: MCF7 or U373 cells cultured in 120-mm coverslips were exposed to 30 µM DCFH-DA (0.1 M PB, pH 7.4) and fixed in 4% paraformaldehyde for 20 min. For fluorescence detection, coverslips were mounted on glass slides and observed with a laser-scanning confocal microscope (TCS SP8 System and Application suite X, Leica Microsystems). DAPI and fluorescein phalloidin (nuclei and cytoskeleton detection, respectively) staining was also used.
# MCF7 cells [4] = test: MTT assay and cleaved-caspase 7 western blot in XIAP siRNA-transfected MCF7 cells treated with compounds; type: cell-based, human; conditions: MCF7, XIAP siRNA 50 nM 24 h; for toxicity (MTT absorbance) after XIAP downregulation: then 6 h, gibbilimbol B/eriopodol A 30 μg/mL, erioquinol 10 μg/mL
# Experimental: as §1
# Using published protocols, MCF7 and MCF10 cells were homogenised in RIPA lysis buffer, supplemented with a cocktail of protease inhibitors (cOmplete; Roche Diagnostics, Milano, Italy). Equal amounts of proteins were separated by 4–20% SDS-polyacrylamide gel electrophoresis (Criterion TGX Stain-free precast gels and Criterion Cell system; Bio-Rad, Hercules, CA, USA) and transferred onto nitrocellulose membrane using a Bio-Rad Trans-Blot Turbo System. When indicated, the membranes were probed using the rabbit monoclonal anti-cleaved caspase 7 and anti-XIAP (Cell Signaling Technology) primary antibodies. After the incubation with the appropriate horseradish-peroxidase-conjugated secondary antibody (Cell Signaling Technology), bands were visualised using the Clarity Western ECL substrate with a ChemiDoc MP imaging system (Bio-Rad). To monitor for potential artefacts in loading and transfer among samples in different lanes, the blots were routinely treated with the Restore Western Blot Stripping Buffer (ThermoFisher Scientific) and re-probed with the goat anti-Lactate dehydrogenase (LDH)-A (Santa Cruz Biotechnology) and the mouse anti-vinculin primary antibodies. The stain-free gel was used as loading control as well. When appropriated, bands were quantified for densitometry using the Bio-Rad Image Lab software.
# Gene silencing of XIAP in MCF7 cells was performed as previously published. Briefly, according to the manufacturer’s protocol, iBONI siRNA Pool (Riboxx, Radebeul, Germany) targeting human XIAP were mixed to Lipofectamine RNAiMax transfection reagent (Life Technologies). iBONI siRNA Pool negative control (Riboxx) (scrambled targeting siRNAs) was also used. The mix was added to cultured MCF7 cells at a siRNA concentration of 50 nM for 24 h.
# MCF7 cells [5] = test: MTT cell viability assay, MCF7 cells; type: cell-based, human; conditions: for IC50: Homo sapiens, MTT; for loss of cell viability (MTT) with simultaneous 50 µM Z-VAD-(OMe)-FMK: MCF7, 6 h, gibbilimbol B/eriopodol A 30 µg/mL, erioquinol 10 µg/mL
# Experimental: Human U373 glioma, MCF7 breast cancer, A549 lung cancer and PC-3 prostate cancer cells were grown in Dulbecco’s Modified Eagle Medium (DMEM), supplemented with 10% foetal bovine serum, 2 mM glutamine, 100 U/mL penicillin/streptomycin, at 37 °C in a humidified atmosphere containing 5% CO2 (logarithmic growth phase, routine passages every 3 days). The human breast epithelial cell line MCF10 was cultured in DMEM/F12 Ham’s Mixture supplemented with 5% horse serum, epithelial growth factor 20 ng/mL, insulin 10 μg/mL, hydrocortisone 0.5 mg/mL, cholera toxin 100 ng/mL, and 100 U/mL penicillin/streptomycin. HUVEC were grown in EGM-2 Endothelial Cell Growth Medium-2 BulletKit (Lonza, Basel, Switzerland), according to the manufacturer’s protocol.
# as §1
# Statistical significance of raw data between the groups in each experiment was evaluated using unpaired Student’s t-test (single comparisons) or one-way ANOVA followed by the Newman-Keuls post-test (multiple comparisons). The IC50 and Emax concentration were determined by non-linear regression curve analysis of the concentration-effect responses. Potency values among concentration-response curves were compared with the F-test. Data belonging from different experiments were represented and averaged in the same graph. The GraphPad Prism software package (GraphPad Software, San Diego, CA, USA) was used. The results were expressed as means ± standard error of mean (SEM) of the indicated n values.
# U373 cells [6] = test: Confocal co-localisation of cytochrome c with COX IV, U373 cells; type: cell-based, human; conditions: U373, 3 h; gibbilimbol B/eriopodol A 30 µg/mL, erioquinol 10 µg/mL
# Experimental: as §2
# MCF7 cells [7] = test: Bright field microscopy and DAPI staining of cell morphology; type: cell-based, human; conditions: MCF7, 6 h; for cell morphology, bright field microscopy: increasing concentrations; for nuclei, DAPI staining: gibbilimbol B/eriopodol A 30 µg/mL, erioquinol 10 µg/mL
# Experimental: as §2
# [8] = MCF7, 24 h (Table 1), read-out: IC50 (μg/mL) MCF7 Cells
# [9] = MCF7, 6 h exposure (time-response), read-out: IC50
# [10] = MCF7, 12 h exposure (time-response), read-out: IC50
SMILES,IC50 (MCF10 cells),subcellular location of cytochrome c (MCF7 cells [1]),TMRM fluorescence (mitochondria membrane potential) (U373 cells [2]),ROS (DCFH-DA staining) (MCF7 cells [3]),toxicity (MTT absorbance) after XIAP downregulation (MCF7 cells [4]),IC50 (MCF7 cells [5]; [8]),IC50 (MCF7 cells [5]; [9]),IC50 (MCF7 cells [5]; [10]),"IC50 (MCF7 cells [5]; MCF7, 24 h exposure (time-response), read-out: IC50)",loss of cell viability (MTT) with simultaneous 50 µM Z-VAD-(OMe)-FMK (MCF7 cells [5]),"concentration-dependent inhibition of MTT absorbance with 50 µM necrostatin-1 and 10 µM ferrostatin-1 (MCF7 cells [5]; MCF7, 24 h, 2 h pre-treatment with inhibitors)",subcellular location of cytochrome c (U373 cells [6]),"cell morphology, bright field microscopy (MCF7 cells [7])","nuclei, DAPI staining (MCF7 cells [7])",caspase 7 activity after XIAP silencing (MCF7 cells [4]; then 30 μg/mL for 6 h)
"CCCCCC/C=C\CCC1(O)C=CC(=O)C=C1 [Erioquinol, (Z)-4-(dec-3′-enyl)-4-hydroxycyclohexa-2,5-dien-1-one]",1.7 µg/mL,release of cytochrome c,comparable decrease in TMRM fluorescence vs. control,marked accumulation of ROS,significantly enhanced the toxicity,2.63 µg/mL,14.7 µg/mL,4.25 µg/mL,1.93 µg/mL,did not affect,did not change,release of cytochrome c,translucent cytoplasm and no overall nuclei condensation,appearence of multinucleated cells,–
"CCCCCC/C=C/CCc1ccc(O)cc1 [Gibbilimbol B, (E)-4-(dec-3′-enyl)phenol]",17.1 µg/mL,release of cytochrome c,comparable decrease in TMRM fluorescence vs. control,absent,significantly enhanced the toxicity,16.4 µg/mL,20.3 µg/mL,27.4 µg/mL,–,significantly inhibited,–,release of cytochrome c,morphological hallmarks of apoptosis,nuclei of cells undergoing apoptosis,robustly increased
